From patent US10556865B2, “Synergistic herbicidal composition containing certain pyridine or pyrimidine carboxylic acids and certain cereal and rice herbicides” (Dow AgroSciences, LLC, priority 2007, dated 2020)

Tests used:
Format in all cases: in vivo
[1] = tested on: blackgrass (Alopecurus myosuroides L; ALOMY); experiment: Postemergence herbicidal activity of mixtures in cereal crops (greenhouse, visual injury 0-100 percent after 20-22 days); conditions: 15 g/ha, Table 1
Summary of the method: (§1)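 Plants at second-third true leaf stage sprayed postemergence at 187 L/ha with compound and second cereal herbicide alone and combined; solvent blank controls. Visual injury scored 0-100% versus controls after 20-22 days; expected mixture effects by Colby's equation.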

[2] = tested on: annual ryegrass (Lolium multiflorum L; LOLMG); experiment: Postemergence herbicidal activity of mixtures in cereal crops (greenhouse, visual injury); conditions: 15 g/ha, Table 1
Summary of the method: as §1

[3] = tested on: wild oats (Avena fatua L; AVEFA); experiment: as above; conditions: 15 g/ha, Table 1
Summary of the method: as §1

[4] = tested on: windgrass (Apera spica-venti L; APESV); experiment: as above; conditions: Apera spica-venti, post-emergence, 15 g/ha, Table 1; read-out: APESV Ob
Summary of the method: as §1

[5] = tested on: chickweed (Stellaria media L; STEME); experiment: as above; conditions: Stellaria media, post-emergence, 15 g/ha; read-out: STEME Ob
Summary of the method: (§2)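 Injury rated visually on a 0–100% scale 20–22 days after treatment, against controls sprayed with solvent blank. Treatments were applied by track sprayer at 187 L/ha to 2nd–3rd leaf plants; compound A or B salts/esters were tested alone or mixed with another cereal herbicide. Colby's equation gave expected mixture responses.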

[6] = tested on: green foxtail (Setaria viridis L; SETVI); experiment: as above; conditions: 15 g/ha, Table 1
Summary of the method: as §2

[7] = tested on: kochia (Kochia scoparia L; KCHSC); experiment: as above
Summary of the method: as §2

[8] = tested on: lamb's-quarters (Chenopodium album L; CHEAL); experiment: as above; conditions: 15 g/ha
Summary of the method: as §2

[9] = tested on: wild mustard (Sinapis arvensis L; SINAR); experiment: as above
Summary of the method: as §2

[10] = tested on: bird's-eye speedwell (Veronica persica L; VERPE); experiment: as above
Summary of the method: (§3)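 Weeds grown in greenhouse (~14 h photoperiod, ~18/17 °C day/night) to second–third true leaf stage, sprayed postemergence with compound and second cereal herbicide alone or combined; solvent-blank controls. Injury scored visually after 20-22 days, 0–100% (complete kill); expected mixture activity = A+B−(A×B/100).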

[11] = tested on: scented mayweed (Matricaria chamomila L; MATCH); experiment: as above
Summary of the method: as §3

[12] = tested on: wild pansy (Viola tricolor L; VIOTR); experiment: as above
Summary of the method: as §3

[13] = tested on: Russian thistle (Salsola iberica L; SASKR); experiment: as above
Summary of the method: as §2

[14] = tested on: Polygonum pensylvanicum L. (POLPY); experiment: Postemergence herbicidal mixtures for weed control in direct seeded rice (greenhouse, visual % injury); conditions: POLPY; 70 g/ha alone
[15] = tested on: Leptochloa chinensis (L.) NEES (LEFCH); experiment: as above; conditions: LEFCH; 70 g/ha alone
[16] = tested on: Digitaria sanguinalis (L.) SCOP. (DIGSA); experiment: as above
[17] = tested on: ivy-leaved speedwell (Veronica hederifolia L; VERHE); experiment: Postemergence herbicidal activity of mixtures in cereal crops (greenhouse, visual injury); conditions: 12.5 g/ha
Summary of the method: as §2

O=C(Nc1ccc(F)cc1F)c1cccnc1Oc1cccc(C(F)(F)F)c1 [Diflufenican, N-(2,4-difluorophenyl)-2-[3-(trifluoromethyl)phenoxy]-3-pyridinecarboxamide, reference compound]
ALOMY Ob [1]: 0% | LOLMG Ob [2]: 0% | AVEFA Ob [3]: 0% | pest or weed control at 15 g/ha [4]: 0% | pest or weed control at 15 g/ha [5]: 3% | SETVI Ob [6]: 0% | KCHSC Ob ([7]; 12.5 g/ha alone): 12% | CHEAL Ob [8]: 0% | SINAR Ob ([9]; 15 g/ha): 0% | pest or weed control at 12.5 g/ha ([10]; Veronica persica, post-emergence, 12.5 g/ha alone, read-out: VERPE Ob): 7% | pest or weed control at 15 g/ha ([10]; Veronica persica, post-emergence, 15 g/ha, read-out: VERPE Ob): 38% | pest or weed control at 12.5 g/ha ([11]; Matricaria, post-emergence, 12.5 g/ha alone, read-out: MATCH Ob): 7% | pest or weed control at 15 g/ha ([11]; Matricaria, post-emergence, 15 g/ha, read-out: MATCH Ob): 5% | pest or weed control at 12.5 g/ha ([12]; Viola tricolor, post-emergence, 12.5 g/ha alone, read-out: VIOTR Ob): 35% | pest or weed control at 15 g/ha ([12]; Viola tricolor, post-emergence, 15 g/ha, read-out: VIOTR Ob): 15%

O=C(O)CNCP(=O)(O)O [Glyphosate]
SASKR Ob ([13]; 52.5 g/ha alone): 0% | KCHSC Ob ([7]; 52.5 g/ha alone): 0% | pest or weed control at 52.5 g/ha ([12]; Viola tricolor, post-emergence, read-out: VIOTR Ob): 52% | % Injury Ob [14]: 0% | % Injury Ob [15]: 20% | % Injury Ob ([16]; 70 g/ha alone): 0%

O=C(Nc1ccc(F)cc1)c1cccc(Oc2cccc(C(F)(F)F)c2)n1 [Picolinafen]
SASKR Ob ([13]; 15 g/ha alone): 60% | VERHE Ob [17]: 5% | KCHSC Ob ([7]; 12.5 g/ha): 5% | SINAR Ob ([9]; 12.5 g/ha): 5% | VERPE Ob ([10]; 12.5 g/ha): 0% | VERPE Ob ([10]; 15 g/ha alone): 43% | MATCH Ob ([11]; 15 g/ha alone): 10% | VIOTR Ob ([12]; 12.5 g/ha): 0% | VIOTR Ob ([12]; 15 g/ha alone): 78%

O=c1c(Cl)c[nH]c(Cl)c1Cl [Pyriclor]
% Injury Ob ([16]; 140 g/ha alone): 80%
